Results published in patent publication US11331364B2, “Use for JNK inhibitor molecules for treatment of various diseases” (Xigen Inflammation Ltd., priority 2014, dated 2022).
Square brackets hold non-standard residues; d marks the D form. Peptide text beside a SMILES is read from it.

Tests used:
healthy male volunteers = experiment: Phase I safety and tolerability of single and repeated instillations; assay type: in vivo, human
Description: XG-104 was prepared as solution for instillations (in NaCl 0.9%). NaCl 0.9% served as placebo. A total of 49 subjects were included in this study, 28 in the “Single dose part” of this study and 21 in the “Multiple dose part” of this study. In the single dose part, the 28 subjects included were randomised between one of the 5 groups: 5 subjects in each of the 4 XG-104 groups (0.1 mg, 0.2 mg, 0.4 mg, 0.8 mg) (0.2, 0.4, 0.8 and 1.6%, respectively) and 8 subjects in the placebo group. In the multiple dose part, the 21 subjects included were randomised between one of the 4 groups: 5 subjects in each of the 3 XG-104 groups (0.1 mg, 0.2 mg, 0.4 mg) and 6 subjects in the placebo group. All subjects completed the study.
In the “Single dose part” of this study, single topical doses of 0.1, 0.2, 0.4 and 0.8 mg (0.2, 0.4, 0.8 and 1.6%, respectively) of XG-104 were tested. A single administration of XG-104 or placebo was performed on day 1 (D1) (one drop in the right eye). In the single dose part, subjects were hospitalized for approximately 36 h, namely from day −1 (D−1) evening to D2 morning. On day 3 an ambulatory visit was performed and the study ended with a visit at D4.
In the “Multiple dose part” of this study, three dose levels were tested. Doses were chosen according to the results of the single dose part as follows: first group: 0.1 mg (0.2%), second group: 0.2 mg (0.4%), and third group: 0.4 mg (0.8%). XG-104 or placebo was administered tid (“ter in die”—three times daily), each time 1 drop in the right eye, from D1 to D21. The administration took place at around 8 a.m., 12 a.m. and 8 p.m. In the multiple dose part, subjects were hospitalized from D−1 evening to D22 morning, whereby the end of the study was a visit at D36 (±2). For more flexibility, subjects had the possibility to perform some visits in ambulatory. In that case visits were the following: hospitalization for approximately 36 h, D−1 evening to D2 morning, ambulatory visits from D2 to D7, hospitalization for approximately 36 h, D7 evening to D9 morning, ambulatory visits from D9 to D14, hospitalization for approximately 36 h, D14 evening to D16 morning, ambulatory visits from D16 to D20, and hospitalization for approximately 36 h, D20 evening to D22 morning. The end of the study was a visit at D36 (±2), accordingly.
The safety parameters evaluated included: physical examination; vital signs (BP, PR); 12-lead ECG (electrocardiogram); fundus of the eye, intraocular pressure, slit lamp examination, best-corrected visual acuity, redness; Schirmer's tear test, TBUT (tear film break-up time); clinical laboratory tests (haematology, haemostasis, clinical chemistry and urinalysis); adverse events; and assessment of tolerability.

JNK = JNK and c-Jun activation after Aβ42 stress in WT primary cortical neurons (immunoblot); assay type: cell-based, mouse
Description: To this end, primary mouse cortical neuron cultures were exposed to either 2 μM or 25 μM of β-amyloid 1-42 (Aβ42) for 5 hours to induce Aβ42 cell stress. Neurons were pre-treated with or without 10 μM of the specific inhibitor of JNK, XG-104 (SEQ ID No. 172). Levels of phosphorylated JNK (pJNK), total JNK (JNK), cleaved PARP and Tubulin (control) were determined. The ratio of pJNK/JNK served as a measure of JNK activity. The level of cleaved protein PARP, which is known to increase during apoptosis, served as a measure of neuronal apoptosis.
To obtain primary cortical neuronal cultures, E15.5 mice embryos were dissected in PBS (Phosphate Buffered Saline) 6% glucose, on ice. Embryos cortices were minced into small pieces and treated with PBS glucose trypsin (Sigma Aldrich, Saint-Louis, USA) for 20 min at 37° C. Dissociated cortical cells were cultured in Neurobasal media complemented with B27, Glutamax and penicillin-streptomycin (Gibco). Neurons were cultured at 37° C., 5% CO2 on pre-coated with poly-L-lysin (Sigma Aldrich) petri dishes. Neurons were cultured to maturity (7 days) before use.
To induce […] stress 2 μM of Aβ1-42 (Thermo Fisher Scientific, Mass., USA) were used during 5 h on cortical neurons. Aβ42-1 inversed peptide (Thermo Fisher Scientific) was used as negative control. AP 1-42 and Aβ42-1 were dissolved in pure water and incubated at 37° C. for 48 h before use. […]
For immunoblot analysis cells were lysed on ice in a lysis buffer containing […] NaPi pH 7.8, […] NaCl, 1% Triton, 0.5% DOC, 0.1% SDS, 10% glycerol, 0.1 μM calyculin A, 1 mM Na3VO4 and 1× of a protease inhibitor cocktail (Sigma Aldrich). Lysates were sonicated and centrifugated 10 min at 15000 g at 4° C. The supernatant protein concentration was determined with the Micro BCA protein assay kit (Thermo Scientific). Thirty micrograms of proteins were resolved on SDS-PAGE and transferred onto nitrocellulose membrane. After blocking with TBS 5% skim milk, the membranes were probed with primary antibodies to JNK full, c-Jun, PKR, eIF2α (Santa Cruz, Danvers, USA), pJNK (Millipore, Billerica, USA), phosphor eIF2a (Thermo Fisher Scientific), PARP and tubulin (Cell Signaling, Danvers, USA). IR Dyes 800 and 700 (Rockland Immunochemical Inc, Gilbertsville, USA) antibodies were used as secondary antibodies. Blots were reveled with Odyssey imaging system (LI-COR Biosciences, Lincoln, USA).

[1] = multiple dose 0.1 mg (0.2%) tid
[2] = multiple dose 0.2 mg (0.4%) tid
[3] = multiple dose 0.4 mg (0.8%) tid
[4] = WT neurons, 10 μM, 1 h before 2 μM Aβ42, vs stressed WT neurons without peptides

## CC(C)C[C@H](NC(=O)[C@H](CC(N)=O)NC(=O)[C@H](CC(C)C)NC(=O)[C@@H](NC(=O)[C@@H](C)NC(=O)[C@@H]1CCCN1C(=O)[C@H](CCCNC(=N)N)NC(=O)[C@@H](CCCCN)NC(=O)[C@@H]1CCCN1C(=O)[C@H](CCCNC(=N)N)NC(=O)[C@@H](CCCNC(=N)N)NC(=O)[C@H](CCCNC(=N)N)NC(=O)[C@H](CCCNC(=N)N)NC(=O)[C@H](CCC(N)=O)NC(=O)[C@@H](CCCNC(=N)N)NC(=O)[C@H](CCCNC(=N)N)NC(=O)[C@H](CCCCN)NC(=O)[C@H](CCCCN)NC(=O)[C@H](N)CCCNC(=N)N)[C@@H](C)O)C(=O)N[C@H](Cc1ccccc1)C(N)=O [SEQ ID NO: 172, rKKRrQRRrRPkRPaTLNLf] (H-[dR]KKR[dR]QRR[dR]RP[dK]RP[dA]TLNL[dF]-NH2; N-terminus assumed)
Healthy male volunteers; [1]
  conjunctival hyperaemia, left eye, unlikely related (number): 2
  conjunctival hyperaemia, right eye, unlikely related (number): 6
  conjunctivas, right eye, probably related (number): 2
  punctate keratitis, left eye, unlikely related (number): 2
  punctate keratitis, left eye, unrelated (number): 1
  punctate keratitis, right eye, unlikely related (number): 6
Healthy male volunteers; [2]
  conjunctival hyperaemia, left eye, unlikely related (number): 3
  conjunctival hyperaemia, right eye, unlikely related (number): 5
  eyelid irritation, right eye, probably related (number): 1
  punctate keratitis, left eye, unlikely related (number): 1
  punctate keratitis, left eye, unrelated (number): 4
  punctate keratitis, right eye, unlikely related (number): 6
  punctate keratitis, right eye, unrelated (number): 1
Healthy male volunteers; [3]
  conjunctival hyperaemia, left eye, unlikely related (number): 2
  conjunctival hyperaemia, right eye, unlikely related (number): 10
  conjunctivitis, right eye, unlikely related (number): 1
  punctate keratitis, left eye, unlikely related (number): 2
  punctate keratitis, right eye, unlikely related (number): 5
Healthy male volunteers; multiple dose part
  clinical examination, biological parameters, vital signs or ECG parameters: No clinically relevant findings
  intensity of TEAEs: mild to moderate
  serious adverse events: No serious adverse events
Healthy male volunteers; multiple dose part, tid D1 to D21, 0.1-0.4 mg
  TEAEs experienced after XG-104 administration (number): 61
Healthy male volunteers; repeated dose t.i.d. 0.1 mg, 0.2 mg, 0.4 mg
  tolerability: well tolerated
Healthy male volunteers; single dose 0.1 mg (0.2%)
  eye pruritus, right eye, unrelated (number): 1
  punctate keratitis, right eye, unrelated (number): 2
Healthy male volunteers; single dose 0.1 mg, 0.2 mg, 0.4 mg
  tolerability: well tolerated
Healthy male volunteers; single dose 0.2 mg (0.4%)
  conjunctival hyperaemia, right eye, unrelated (number): 1
  punctate keratitis, right eye, unrelated (number): 2
Healthy male volunteers; single dose 0.4 mg (0.8%)
  punctate keratitis, right eye, unrelated (number): 2
Healthy male volunteers; single dose 0.8 mg (1.6%)
  TEAEs right eye probably related to study drug (number): 3
  conjunctival hyperaemia, right eye, probably related (number): 1
  conjunctivitis, right eye, probably related (number): 2
  punctate keratitis, right eye, unrelated (number): 1
  tolerability: rather well tolerated
Healthy male volunteers; single dose part
  clinical examination, vital signs or ECG parameters: No clinically relevant findings
  intensity of TEAEs: mild
  serious adverse events: No serious adverse events
Healthy male volunteers; single dose part, 0.1-0.8 mg, one drop right eye
  TEAEs experienced after XG-104 administration (number): 21
JNK; 2 μM Aβ42 5 hours, 5 μM pre-treatment
  decrease of JNK activity (pJNK/JNK): 29.2%
JNK; 2 μM Aβ42 5 hours, 10 μM pre-treatment
  decrease of JNK activity (pJNK/JNK): 60%
JNK; 25 μM Aβ42 5 hours, 5 μM pre-treatment
  decrease of JNK activity (pJNK/JNK): 17.5%
JNK; 25 μM Aβ42 5 hours, 10 μM pre-treatment
  decrease of JNK activity (pJNK/JNK): 59.6%
JNK; WT neurons, 10 μM, 1 h before 2 μM Aβ42
  JNK activation: −60%
JNK; [4]
  c-Jun expression: −62%
  c-Jun phosphorylation: −29%
